Literature values, collected in paper PMC5073354, “Direct and indirect mechanisms of KLK4 inhibition revealed by structure and dynamics” (Scientific Reports, 2016).

What was measured:
KLK4 [1] = test system: KLK4
From the text: Since the trypsin-SFTI-1 and matriptase-SFTI-1 protease/inhibitor complexes have been characterized by X-ray crystallography, a structural context is available to dissect relative potencies. […] To examine the interaction between KLK4 and inhibitor we determined the X-ray crystal structure of a KLK4-SFTI-1 complex to 1.0 Å resolution. The inhibitor structure is well-resolved except for missing density in the backbone of Pro13 and the side chain of Asp14. The contact β-sheet of SFTI-1 has multiple interactions with the KLK4 active site, including the P1 Lys5 inserting into the S1 pocket of KLK4 (Fig. 1B). || When comparing the structure of SFTI-1 in the context of trypsin, matriptase and KLK4, differences in the interface correlate to the potency of inhibition. […] Comparison of the structures provides arguments to support this lowered inhibition. SFTI-1 has less buried surface area and fewer interactions with KLK4 than with either trypsin or matriptase (Table S1). SFTI-1 behaves as a Laskowski inhibitor, interacting with its targets following the classi ... || (+ 1 further places)

matriptase = test system: matriptase
From the text: (§1) Since the trypsin-SFTI-1 and matriptase-SFTI-1 protease/inhibitor complexes have been characterized by X-ray crystallography, a structural context is available to dissect relative potencies.

trypsin = test system: trypsin
From the text: as §1

KLK4 [2] = conditions: ion binding to residues more than 20 Å from the active site
From the text: To gain more insight into this mode of inhibition, we crystallized KLK4 under identical conditions but in the absence of PABA inhibitor.

Factor VIIa = conditions: FVIIa not bound to tissue factor
From the text: Kallikreins are proteases that perform catalysis in organs with high zinc concentrations. The KLK4 inactivation by nickel described in this work is also proposed to apply to zinc binding to the same […]/[…] site[23]. A molecular understanding of zinc-mediated inhibition of members of the kallikrein family is emerging with three types of inhibition seen[41]. […] This is proposed to inhibit activity by […][42]. Second, zinc binding to residues in loop IV (also known ...

KLK4 [3] = conditions: library of tetrapeptide pNA substrates with invariant P1 Arg
From the text: We previously tested the amidolytic activity of KLK4 against a focused library of synthetic tetrapeptide substrates with an invariant P1 Arg[13]. […] To investigate the structural basis for increased potency, we solved the crystal struct ...

1GRCTKSIPPICFPD14 (bicyclic or more) [SFTI-1, sunflower trypsin inhibitor-1, 14 amino acid bicyclic peptide; backbone cyclization coupled with an intramolecular disulfide linkage]
rank of potency, KLK4 versus trypsin and matriptase (in words) (KLK4 [1]; discrepancy in reported SFTI-1 inhibition constants (ref 12, 26, 27)): KLK4 is thought to be the least potently inhibited | inhibition of KLK4 (in words) (KLK4 [1]; proteolytic activity of KLK4): potently inhibits KLK4 proteolytic activity | inhibition of matriptase (in words) (matriptase): inhibit KLK4 in addition to trypsin and matriptase | inhibition of trypsin (in words) (trypsin): inhibit KLK4 in addition to trypsin and matriptase

[Ni+2] [Ni^2+, nickel]
inhibition of KLK4 by metal (in words) (KLK4 [2]): KLK4 can be inhibited

[Ca+2] [calcium]
reversal of zinc inhibition of FVIIa (in words) (Factor VIIa; zinc-inhibited): can reverse this inhibition with calcium

[Zn+2] [zinc]
inhibition of FVIIa by zinc (in words) (Factor VIIa): is inhibited by zinc

FVQR-p-nitroanilide [FVQR-p-nitroanilide (pNA)]
amidolytic activity of KLK4 for substrate (in words) (KLK4 [3]): highest activity
